Results published in patent EP2620142A1, “Hedgehog signaling pathway involved in energy metabolism” (Max-Planck-Gesellschaft zur Förderung der Wissenschaften …, priority 2012, dated 2013).

Experiments:
3T3-L1 adipocytes [1] = assay: Calcium flux measurement (FluoForte); format: cell-based, Murine
Description: 3T3-L1 cells were cultured and differentiated in black wall/clear bottom 96-well plates (Corning). At day seven post-induction, cells were starved overnight in DMEM containing 1 % BSA and loaded with the calcium dye FluoForte AM (Enzo Lifescience) according to the instructions provided by the manufacturer. Intracellular calcium levels were measured using a Synergy 4 microplate reader (BioTeK). […] Baselines for each well were acquired before injection and subtracted afterwards. Ionomycin and EGTA were injected in concentrations of 1 µM.

3T3-L1 adipocytes [2] = format: cell-based, Murine
Description: Murine 3T3-L1 preadipocytes (ATCC) were maintained in DMEM containing 10% heat inactivated calf serum (CS) at 37°C and 5% CO2. Two days post-confluence, adipocyte differentiation was induced by treating cells with 0.25 mM 3-Isobutyl-1-methylxanthine (IBMX), 1 µM dexamethasone, 1.74 µM insulin and 5 µM Troglitazone in DMEM containing 10% fetal bovine serum (FBS). After 48 hours, the medium was replaced with DMEM supplemented with 10% FBS, insulin and Troglitazone alone. After an additional 48 hours, cells were switched to DMEM with 10% FBS for the rest of the differentiation process and the medium was changed every other day. Seven days post-induction, differentiated 3T3-L1 1 adipocytes were starved overnight in DMEM containing 1 % Bovine Serum Albumin (BSA) before starting different treatments as indicated in the text.
Differentiated 3T3-L1 adipocytes were starved overnight in DMEM containing 1 % BSA and treated as indicated. NAD^+, NADP^+, NADH, and NADPH were determined using the Enzychrom NAD^+/NADH and the Enzychrom NADP^+/NADPH assay kit, respectively (BioAssay Systems) according to manufacturer's instructions. To measure glucose consumption and lactate production, the Glucose RTU and Lactate RTU kits (Biomerieux) were used according to manufacturer's instruction and normalized to cell number. AMP, ADP and ATP were determined as previously described^51. In brief, cells were washed once with ice cold PBS and proteins were precipitated with 1 % trichloroacetic acid (TCA). Repeated ether washes were used to remove TCA from the aqueous extract phase. Extracts were dried and stored at -80°C until further processing. To determine nucleotide phosphates by reversed-phase HPLC cell extracts were lyophilized for 3 days at -20 °C. Dried samples were dissolved in mobile phase A (60 mM K2HP04 and 40 mM KH2P04, adjusted to pH 7 with 0.1 M KOH). 20 µL were injected into an Agilent 1200 HPLC system (Agilent) and nucleotides were separated by gradient elution from an Agilent Eclipse XDB-C18 4.6 x 150 mm column at a flow rate of 1 mL/min. The gradient was 99% phase A from 0-5 minutes, 99% phase A to 40% A from 5-20 minutes and 99% phase A from 20-32.5 minutes. 100% acetonitrile served as mobile phase B. Eluting nucleotides were monitored on a UV detector at 254 nm. ATP, ADP and AMP standards were used to generate calibration curves for peak quantifications.

C57BL/6J mice [3] = assay: Glycemic-insulinemic clamp with somatostatin infusion; format: in vivo
Description: Indwelling catheters were placed into the left femoral vein and externalised in the interscapular region of 11 week old C57BL/6J mice^17,52. The animals were allowed to recover for 5 days and fasted for 16 hours before the experiment. Somatostatin (SST14 Bachem, Switzerland) was infused at a rate of 1 µg/kg/min and hyperglycemia (12.5 mM) was maintained by variable infusion of 10% glucose. Steady state was maintained for 90 min before cyclopamine injection (2/3 bolus 1/3 infusion; low dose = 1 mg/kg, high-dose = 10 mg/kg), or HBS (Control). Whole blood was sampled from the tail every 10 min during the last hour using a glucometer (AccuCheck Aviva; Roche Diagnostics, Meylan, France).

Smoothened = conditions: cyclopamine 100 nM against standard 200 nM SAG; cited from earlier work
[4] = tested on: STZ-treated C57BL/6J mice; assay: Cyclopamine tolerance test in STZ-treated mice; format: in vivo
Description: (§1) C57BL/6J mice were maintained on a standard rodent chow diet and a 12 hour light: 12 hour dark cycle. Eight week old, over-night fasted C57BL/6J male mice were injected intraperitoneally (i.p.) with vehicle (45% hydroxypropyl-β-cyclodextrin; HBS) or cyclopamine (10 mg/kg). Fifteen minutes after injection, an oral glucose tolerance test (OGTT) was performed by administering 2 g/kg glucose by oral gavage. Tail-vein blood was collected to measure glucose and insulin levels. Insulin was measured using the ultrasensitive insulin ELISA Kit from Mercodia, according to the manufacturer's recommendations. For cyclopamine tolerance tests eight week old C57BL/6J mice were i.p. injected with streptozotocin (STZ, 200 mg/kg body weight) to destroy pancreatic beta-cells. 72 hours later STZ-treated mice were separated into two groups and injected i.p. with either vehicle or 10 mg/kg cyclopamine. All animal experiments were carried out according to an ethical animal license protocol in accordance to the animal protection law and approved by the Regierungspräsidium Freiburg (Tierversuchsvorhaben Registrier-Nr.: G-10/94).

C57BL/6J mice [5] = assay: Oral glucose tolerance test (OGTT); format: in vivo
Description: as §1

AMPK = assay: AMPKAR FRET assay of AMPK activity; format: cell-based, Human; conditions: cyclopamine, HEK293 with AMPK-AR reporter
Description: HEK293 cells (ATCC) were grown in DMEM containing 10% FBS. 2 x 10^6 cells were seeded in 10 cm dishes and transfected using the GeneJuice Reagent (Merck) according to manufacturer's instructions. 48 hours after transfection, cells were resuspended in PBS and used for FRET assays.
HEK293 cells transfected with the AMPK-AR construct^40 were resuspended in PBS at a concentration of 10^5 cells/ml. A Synergy 4 microplate reader (BioTeK) was used for measuring FRET signals. In brief, compounds were pipetted into a 96-well plate at the concentrations indicated in the text. Cell suspensions were pre-loaded in the reader to be injected at 10^4 cells/well. The FRET signal was detected using 420/50 nm and 528/20 nm as excitation and emission settings. Baseline values for each well were acquired before injection and subtracted afterwards.

For `O=C(O)CN(CCOCCOCCN(CC(=O)O)CC(=O)O)CC(=O)O` [EGTA], the “effect on cyclopamine-induced Ca++ response” value (3T3-L1 adipocytes [1]; EGTA 1 µM) was “sensitive to extracellular EGTA” and the “effect on SAG- and Shh-induced Ca++ responses” value (3T3-L1 adipocytes [1]; EGTA 1 µM, extracellular calcium chelator) was “completely abrogated the SAG-and Shh-induced responses”.

With `c1cc(-c2cnn3cc(-c4ccc(OCCN5CCCCC5)cc4)cnc23)ccn1` [compound C] the “effect on SAG-induced metabolic rewiring (glucose uptake, lactate production, redox balance)” value (3T3-L1 adipocytes [2]; SAG 200 nM, compound C 10 µM, nifedipine 20 µM, Ptx 100 ng/ml) was “abrogated all detectable metabolic rewiring effects following SAG stimulation” and the “effect on cyclopamine-dependent glucose uptake, lactate production and redox rebalancing” value (3T3-L1 adipocytes [2]; cyclopamine 100 nM, compound C 10 µM, nifedipine 20 µM, Ptx 100 ng/ml) was “efficiently counteracted”.

With `CC1=C2C[C@H]3[C@@H](CC=C4C[C@@H](O)CC[C@@]43C)[C@@H]2CC[C@]12O[C@@H]1C[C@H](C)CN[C@H]1[C@H]2C` [cyclopamine, 11-deoxojervine] the “tissue-specific glucose uptake (glucose tracing)” value (C57BL/6J mice [3]; LD 1 mg/kg, HD 10 mg/kg, EDL, Soleus, VL) was “increased glucose-uptake into muscle”, the “time to increase in glucose infusion rate” value (C57BL/6J mice [3]; after cyclopamine infusion) was 10 to 20 min and the glucose infusion rate (C57BL/6J mice [3]; low dose 1 mg/kg, high dose 10 mg/kg, somatostatin infusion) was “robust dose-dependent increases in glucose infusion rate”. For the same molecule, the “displacing SAG and blocking canonical signalling” value (Smoothened) was “incapable of displacing standard 200 nM SAG and blocking canonical signalling”, the “NAD+/NADH ratio” value (3T3-L1 adipocytes [2]; cyclopamine 100 nM) was “augmentation of the NAD^+/NADH ratio” and the generation of lactate (3T3-L1 adipocytes [2]; cyclopamine 100 nM) was “generation of lactate”. The glucose uptake (3T3-L1 adipocytes [2]; cyclopamine 100 nM) was “marked glucose uptake”, the glucose clearance ([4]; 10 mg/kg i.p., insulin-deficient mice) was “significant and robust glucose clearance” and the “time to glucose clearance” value ([4]; after cyclopamine injection, 10 mg/kg) was roughly 30 min. The glucose tolerance (C57BL/6J mice [5]; 10 mg/kg i.p. 15 minutes prior to testing, 2 g/kg oral glucose) was “moderate but significant improvement in glucose tolerance”, the “basal and glucose-stimulated insulin secretion” value (C57BL/6J mice [5]; 10 mg/kg i.p. pre-treatment) was “Neither basal nor glucose-stimulated insulin secretion appeared affected” and the “Ca++ response” value (3T3-L1 adipocytes [1]; cyclopamine) was “rapid and robust Ca^++ response”. For the same molecule, the “Ampk sensitive FRET signal” value (AMPK) was “significant Ampk sensitive FRET signal”.
